Data as given in PubChem BioAssay AID179 (DTP/NCI, 2004).
Activity calls are given as the source filed them.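 The calls were made as follows: active = compounds giving half or more protection of infected cells from virus-caused growth loss, again on retest; inactive = the rest.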 Where a SMILES comes first, the peptide text is derived from it. The star is where a group is joined. Boc = CC(C)(C)OC(=O)*

System: CEM cells HIV-1 protection, formazan growth assay
Assay: NCI AIDS Antiviral Assay
Conditions: for IC50: measured here: growth of uninfected CEM cells
How it was run: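 Steps: treat uninfected and HIV-1-infected human CEM cells at five drug levels; quantify growth by soluble formazan; retest any compound reaching 50% protection; classify actives from the retest.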

Row | Structure (SMILES) | outcome | EC50 [µM] | IC50 [µM]
1 | CC(=O)O[C@@H]1C(O)C=C2c3cc4c(c(O)c3C(=O)NC2[C@@H]1OC(C)=O)OCO4 (some centres undefined) | inactive | – | –
2 | CC(C)=CCc1c(O)ccc2c1OC1c3ccc(O)c(CC=C(C)C)c3OCC21 (centres undefined) | inactive | – | –
3 | CCCCCCCC[N+]12CN3CN(CN(C3)C1)C2 | – | > 759 | 39.8
4 | Cc1ccc(S(=O)(=O)Nn2c(S)c(C#N)c(-c3ccc(N(C)C)cc3)c(C#N)c2=O)cc1 | – | > 200 | 7.76
5 | CCCC(=O)N1CCN(c2ccc3c(c2)OC(C)O3)CC1 (centres undefined) | – | > 200 | > 200
6 | COc1c2c3c(c(OC)c1OC)-c1ccc(O)cc1C3=NCC2 | inactive | – | –
7 | Nc1ccccc1-c1noc(=O)[nH]1 | – | > 200 | > 200
8 | CN1C(C(=O)Nc2nccs2)=C(O)c2ccccc2S1(=O)=O | – | > 200 | 191
9 | CCOc1ccnc2c(OC)c(C)c3nc4ccccc4nc3c12 | – | > 100 | > 100
10 | COC(=O)/C(=N\Nc1nc(=S)[nH]n1N)C(C#N)c1ccc(Cl)cc1 (centres undefined) | – | > 37.2 | > 37.2
11 | CCOC(=O)CNC(=O)N(CC)C12CC3CC(CC(C3)C1)C2 | – | > 200 | 129
12 | OC1(c2cccnc2)c2ccccc2Oc2ccccc21 | – | > 200 | 79.4
13 | CC(=O)NS(=O)(=O)c1ccc(NC(=O)c2ccccc2SC(=O)c2ccccc2)cc1 | – | 15.1 | 117
14 | N#Cc1ccc(Nc2cnc3cc(N)ccc3n2)cc1 | – | > 20 | > 20
15 | O=S1CC(c2ccccc2)=C(c2ccccc2)CS1 (centres undefined) | – | > 200 | 47.9
16 | Cc1ccc(/C=C/c2nnc(N/N=C/c3ccc4c(c3)OCO4)[nH]c2=O)cc1 | – | > 200 | 95.5
17 | COCc1cc(=O)oc2c3c(c4c(c12)OC(C)(C)C=C4)O[C@H](C)[C@@H](C)[C@H]3O | – | 174 | 182
18 | CCn1cc(C(=O)O)c(=O)c2cc(Cl)c(-n3cccc3)cc21 | inactive | – | –
19 | Cc1ccccc1N1C(=O)/C(=C/c2ccc(N(CCC#N)CCC#N)cc2)N=C1c1cc([N+](=O)[O-])ccc1Cl | – | > 9.77 | > 9.77
20 | CCOC(=O)C(=[N+]=[N-])C(=O)C[N+]12CCN(CC1)CC2 | – | > 200 | > 200
21 | CCOP(=O)(OCC)/C(=C/n1c(=S)[nH]c2ccc([N+](=O)[O-])cc21)C(=O)OC | – | > 200 | 115
22 | NC1=NS(=O)(=O)Nc2nc(-c3ccc([N+](=O)[O-])cc3)[nH]c21 | – | > 200 | > 200

Row | Structure (SMILES) | outcome | EC50 [µM] | IC50 [µM]
23 | Nc1cc(OCc2ccccc2)c(OCc2ccccc2)cc1C=O | – | > 200 | 18.6
24 | O=c1c(=O)c2cc(O)ccc12 | – | > 1700 | 282
25 | CC(=O)OCC1OC(n2c(-c3ccc(Cl)cc3)cc(-c3ccccc3)c(C#N)c2=S)C(OC(C)=O)C(OC(C)=O)C1OC(C)=O (centres undefined) | – | > 200 | 145
26 | O=C(N/N=C/c1cc(-c2ccccc2Cl)c(-c2ccccc2Cl)o1)c1ccncc1 | – | > 12 | > 12
27 | COC(C/C(=C/CO[Si](C(C)C)(C(C)C)C(C)C)C(=O)Nc1ccccc1I)OC | – | > 200 | 40.7
28 | CC(=O)OCC1OC(n2cc([N+](=O)[O-])c(=O)[nH]c2=O)C(OC(C)=O)C(OC(C)=O)C1OC(C)=O (centres undefined) | – | > 513 | > 513
29 | Fc1ccccc1CN1COc2c(cc(Cl)c3cccnc23)C1 | – | > 200 | 3.09
30 | COP(=O)(O)C(N)Cc1c[nH]c2ccccc12 (centres undefined) | – | > 200 | > 200
31 | CC(=O)C(=Cc1ccc(C#N)cc1)C(C)=O | – | > 170 | 26.9
32 | O=C1c2ccccc2N2OC3(N4CCCC4)CCCC3C12c1ccccc1 (centres undefined) | – | > 38 | > 38
33 | C1CN(SSN2CCOCC2)CCO1 | – | > 200 | 126
34 | O=C([CH-]C(=O)c1ccccc1)c1ccccc1.[CH-]1CCCCC1.[CH-]1CCCCC1.[CH-]1CCCCC1.[Sn+4] | – | > 60.3 | –
35 | N#Cc1nc(CCC(C(=O)O)N2C(=O)c3ccccc3C2=O)oc1N (centres undefined) | – | > 100 | > 100
36 | COc1ccc(C2CC(=O)c3cc(OC)ccc3O2)cc1 (centres undefined) | – | > 200 | > 200
37 | Cc1ccc(S(=O)(=O)SC/C=C\CSS(=O)(=O)c2ccc(C)cc2)cc1 | inactive | – | –
38 | CCOC(=O)C(CC(C)C)NC(=O)C(Cc1ccccc1)NC(=O)CNC(=O)OC(C)(C)C (stereo not drawn) (Boc-Gly-Phe-Leu-OEt; configuration not given here) | – | > 200 | 8.51
39 | CC(=O)c1cccc(NC(=O)C(=O)c2c(O)c3ccccc3oc2=O)c1 | – | > 708 | 380
40 | O=C(CC(=O)C1CCOC1=O)C(=O)Nc1ccc(Cl)cc1Cl (centres undefined) | inactive | – | –
41 | O=C(O)C1(c2ccccc2)CCCNCC1 (centres undefined) | – | > 6170 | > 6170
42 | CC1=NN(C(=O)CC(=O)Nc2ccc(Cl)cc2)C(=O)C1N=Nc1ccc(C(=O)O)cc1 (centres undefined) | – | > 200 | 87.1
43 | Cc1ccc2[nH]c3c(c2c1)C1CCC(C(C)(C)C)CC1C1C(=O)N(c2ccc(Oc4ccccc4)cc2)C(=O)C31 (centres undefined) | – | > 200 | 10.5
